{"source": "patent US11000033B2", "about": "“Ketone or oxime compound, and herbicide” (NISSAN CHEMICAL CORPORATION, priority 2014, dated 2021)", "type_in_all_cases": "in vivo", "key": {"[1]": {"tested_on": "Alopecurus myosuroides", "assay": "Test Example 4: herbicidal effect by soil treatment (symbol J)", "conditions": "application herbicide amount 320 g/ha", "outline": "(§1)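 Seeds were sown in sterilized diluvial soil, covered with about 1.5 cm of soil, and the soil surface was sprayed with a water-diluted emulsion of the compound at a predetermined rate. Plants grew in a greenhouse at 25° C. to 30° C.; effects were scored visually 3 weeks after application.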"}, "[2]": {"tested_on": "Setaria viridis", "assay": "Test Example 4: herbicidal effect by soil treatment (symbol G)", "conditions": "application herbicide amount 320 g/ha", "outline": "as §1"}, "[3]": {"tested_on": "beet", "assay": "Test Example 5: effect on crop by foliage application, plastic box (symbol f)", "conditions": "320 g/ha, 3 weeks after application", "outline": "(§2)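 In a plastic box 7 cm deep filled with sterilized diluvial soil, seeds of crops and weeds such as Digitaria ciliaris, Avena fatua and Amaranthus retroflexus are sown in spots and covered with about 1.5 cm of soil before greenhouse growth at 25–30° C.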"}, "[4]": {"tested_on": "Stellaria media", "assay": "Test Example 5: herbicidal effect by foliage application, plastic box (symbol P)", "conditions": "320 g/ha, 3 weeks after application", "outline": "(§3)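 Greenhouse foliar test: seedlings at 14 days, grown 25° C. to 30° C. in sterilized diluvial soil; compound applied as an aqueous dilution of an emulsion; response read 3 weeks after spraying.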"}, "[5]": {"tested_on": "Galium spurium", "assay": "Test Example 4: herbicidal effect by soil treatment (symbol Q)", "conditions": "application herbicide amount 320 g/ha", "outline": "as §1"}, "[6]": {"tested_on": "Scirpus juncoides", "assay": "Test Example 1: herbicidal activity, application before weed generation in submerged conditions (symbol B)", "conditions": "application herbicide amount 320 g/ha", "outline": "(§4)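 Greenhouse growth at 25–30 °C lasted 3 weeks after treatment, when each weed was graded 0–5 by herbicidal ratio. Treatment was a diluted emulsion applied to the water surface of 4 cm-submerged alluvial soil on the sowing day.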"}, "[7]": {"tested_on": "Alopecurus myosuroides", "assay": "Test Example 5: herbicidal effect by foliage application, plastic box (symbol J)", "conditions": "320 g/ha, 3 weeks after application", "outline": "as §3"}, "[8]": {"tested_on": "rapeseed", "assay": "Test Example 4: effect on crop by soil treatment (symbol g)", "conditions": "application herbicide amount 320 g/ha", "outline": "(§5)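 Plants grew in a 25° C. to 30° C. greenhouse after spot-sowing of seeds, including beet, rapeseed, wheat and rice, into sterilized diluvial soil under roughly 1.5 cm of cover soil.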"}, "[9]": {"tested_on": "Apera spica-venti", "assay": "Test Example 4: herbicidal effect by soil treatment (symbol L)", "conditions": "application herbicide amount 320 g/ha", "outline": "as §1"}, "[10]": {"tested_on": "Galium spurium", "assay": "Test Example 5: herbicidal effect by foliage application, plastic box (symbol Q)", "conditions": "320 g/ha, 3 weeks after application", "outline": "as §3"}, "[11]": {"tested_on": "Cyperus difformis", "assay": "Test Example 3: herbicidal effect by foliage application, Wagner pot (symbol E)", "conditions": "application herbicide amount 320 g/ha", "outline": "(§6)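 Steps: fill pot with alluvial soil; add water to 0.1–0.5 cm depth; sow weed and rice seed; grow 14 days at 25–30 °C; spray diluted emulsion over the leaves; rate effect after 3 weeks.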"}, "[12]": {"tested_on": "wheat", "assay": "Test Example 4: effect on crop by soil treatment (symbol e)", "conditions": "application herbicide amount 320 g/ha", "outline": "as §5"}, "[13]": {"tested_on": "Abutilon theophrasti", "assay": "Test Example 5: herbicidal effect by foliage application, plastic box (symbol M)", "conditions": "320 g/ha, 3 weeks after application", "outline": "as §3"}, "[14]": {"tested_on": "Apera spica-venti", "assay": "Test Example 5: herbicidal effect by foliage application, plastic box (symbol L)", "conditions": "320 g/ha, 3 weeks after application", "outline": "as §3"}, "[15]": {"tested_on": "Digitaria ciliaris", "assay": "Test Example 5: herbicidal effect by foliage application, plastic box (symbol F)", "conditions": "320 g/ha, 3 weeks after application", "outline": "as §3"}, "[16]": {"tested_on": "Echinochloa oryzacola Vasing.", "assay": "Test Example 1: herbicidal activity, application before weed generation in submerged conditions (symbol A)", "conditions": "application herbicide amount 320 g/ha", "outline": "as §4"}, "[17]": {"tested_on": "Echinochloa crus-galli var. crus-galli", "assay": "Test Example 3: herbicidal effect by foliage application, Wagner pot (symbol H)", "conditions": "application herbicide amount 320 g/ha", "outline": "as §6"}, "[18]": {"tested_on": "rapeseed", "assay": "Test Example 5: effect on crop by foliage application, plastic box (symbol g)", "conditions": "320 g/ha, 3 weeks after application", "outline": "as §2"}, "[19]": {"tested_on": "Amaranthus retroflexus", "assay": "Test Example 5: herbicidal effect by foliage application, plastic box (symbol N)", "conditions": "320 g/ha, 3 weeks after application", "outline": "as §3"}}, "data": [{"compound": "COC(=O)CON=C(C)CC1CC(O)=C(c2c(C)cc(C)cc2C)C1=O", "note": "(stereo not shown) [1-023]", "values": [{"measurement": "J (Alopecurus myosuroides) herbicidal effect grade", "setting": "[1]", "value": "0 (Herbicidal ratio of 5% or lower (almost no effect))"}, {"measurement": "G (Setaria viridis) herbicidal effect grade", "setting": "[2]", "value": "3 (Herbicidal ratio of 40% or higher and lower than 70%)"}, {"measurement": "f: beet, effect on crop grade", "setting": "[3]", "value": "0 (Herbicidal ratio of 5% or lower (almost no effect))"}, {"measurement": "P: Stellaria media, herbicidal effect grade", "setting": "[4]", "value": "0 (Herbicidal ratio of 5% or lower (almost no effect))"}, {"measurement": "Q (Galium spurium) herbicidal effect grade", "setting": "[5]", "value": "0 (Herbicidal ratio of 5% or lower (almost no effect))"}, {"measurement": "Herbicidal effect grade, B: Scirpus juncoides", "setting": "[6]", "value": "0 (Herbicidal ratio of 5% or lower (almost no effect))"}, {"measurement": "J: Alopecurus myosuroides, herbicidal effect grade", "setting": "[7]", "value": "4 (Herbicidal ratio of 70% or higher and lower than 90%)"}, {"measurement": "g (rapeseed) effect on crop grade", "setting": "[8]", "value": "0 (Herbicidal ratio of 5% or lower (almost no effect))"}, {"measurement": "L (Apera spica-venti) herbicidal effect grade", "setting": "[9]", "value": "4 (Herbicidal ratio of 70% or higher and lower than 90%)"}, {"measurement": "Q: Galium spurium, herbicidal effect grade", "setting": "[10]", "value": "2 (Herbicidal ratio of 20% or higher and lower than 40%)"}, {"measurement": "herbicidal effect on E, grade 0-5", "setting": "[11]", "value": "0 (Herbicidal ratio of 5% or lower (almost no effect))"}, {"measurement": "e (wheat) effect on crop grade", "setting": "[12]", "value": "0 (Herbicidal ratio of 5% or lower (almost no effect))"}, {"measurement": "M: Abutilon theophrasti, herbicidal effect grade", "setting": "[13]", "value": "0 (Herbicidal ratio of 5% or lower (almost no effect))"}, {"measurement": "L: Apera spica-venti, herbicidal effect grade", "setting": "[14]", "value": "4 (Herbicidal ratio of 70% or higher and lower than 90%)"}, {"measurement": "F: Digitaria ciliaris, herbicidal effect grade", "setting": "[15]", "value": "2 (Herbicidal ratio of 20% or higher and lower than 40%)"}, {"measurement": "Herbicidal effect grade, A: Echinochloa oryzacola Vasing.", "setting": "[16]", "value": "4 (Herbicidal ratio of 70% or higher and lower than 90%)"}, {"measurement": "herbicidal effect on H (Echinochloa crus-galli var. crus-galli), grade 0-5", "setting": "[17]", "value": "5 (Herbicidal ratio of 90% or more (almost completely withered))"}, {"measurement": "g: rapeseed, effect on crop grade", "setting": "[18]", "value": "2 (Herbicidal ratio of 20% or higher and lower than 40%)"}, {"measurement": "N: Amaranthus retroflexus, herbicidal effect grade", "setting": "[19]", "value": "0 (Herbicidal ratio of 5% or lower (almost no effect))"}]}]}
